# According to article PMC7594079, “Insights into the Function and Evolution of Taste 1 Receptor Gene Family in the Carnivore Fish Gilthead Seabream (Sparus aurata)” (International Journal of Molecular Sciences, 2020):
# Key:
# saT1R1/R1 = conditions: cells transfected with saT1R1 alone (double amount)
# From the text: (§1) Previous studies have reported that heterodimeric coupling of saT1R complexes may not be the only mode of functional activation since these subunits, especially T1R3, can also couple as homodimers.
# (§2) Figure 8 Comparisons of proline Log-dose response curves of activation in heterologous transfections of hetero- and homo-dimeric saT1R combinations of saT1R1/R3 (black dots), saT1R2a/R3 (white dots), saT1R2b/3 (black triangles), saT1R1/R1 (white triangles) and saT1R3/R3 (black squares). Response is measured as RLU mean ± SEM of four independent determinations normalized to the mean response of the same transfections stimulated with reduced assay medium (BME + 1% FBS), expressed as percentage relative to basal levels (BL).
# (§3) saT1Rs (saT1R1, saT1R2a, saT1R2b saT1R3) and saGαi1-2 genes were RT-PCR amplified using 5’ and 3’ flanking primers carrying HindIII and XhoI restriction sites, respectively. Gel-purified fragments were cloned into pGEM-T Easy vectors, re-sequenced, digested and subcloned into pcDNA™3 (Invitrogen, Carlsbad, CA, USA). Effective saT1R cloning into pcDNA™3 was further verified by HindIII/XhoI digestion. […]
# saT1R3/R3 = conditions: cells transfected with saT1R3 alone (double amount)
# From the text: as §1, §2, §3
# [1] = tested on: pGL3-NFAT-luc-HEK293 (Cl.3) cells; format: cell-based
# From the text: BL (Basal Levels) = 100% RLU. Different lowercase letters (a,b,c) on top of bars indicate significant differences (p < 0.05) between concentrations, assessed by one-way ANOVA followed by Tukey’s Multiple Comparison Test (GraphPad Prism version 5.00).
SMILES,response to Pro stimulation (saT1R1/R1),response to Pro stimulation (saT1R3/R3),doses toxic for the cells and/or inhibiting their stimulation [1] [mM]
"O=C(O)[C@@H]1CCCN1 [Pro, Proline]",did not respond,did not respond,
OC[C@H]1OC(O)[C@H](O)[C@@H](O)[C@@H]1O (stereo partly drawn) [D-Glucose],,,300 to 500
